# Laboratory results published in patent publication US20260183304A1, “COMBINATION OF A TYROSINE KINASE INHIBITOR AND A PRO-INFLAMMATORY AGENT FOR TREATING CANCER” (MDX Management LLC, priority 2022, published 2026).
# How the values were obtained:
# [1] = test system: macrophage SHP-1 activity; experiment: Macrophage SHP-1 (PTP) activity induced by αTLR and cancer cell ligation; type: cell-based, human; details: induced by αTLR (CpG, PolyIC, R848) and SW620 cancer cell ligation
# Protocol: . After incubation for 15 minutes at 37° C., cells were gently washed to remove the majority of SW620, followed by lysis of macrophage using Hank's buffer (pH 7.2) containing 1% Triton and 1 mM PMSF. Protein tyrosine phosphatase (PTP) activity was assayed with […] Hank's buffer at 37° C.
# (§1) In vitro assays. Macrophage response to αTLR was assayed in the presence of cancer cell ligation and with or without TK inhibitor. Macrophage SHP-1 activity (PTP activity), macrophage expression of antigen presentation machinery and proinflammatory cytokines were assayed.
# (§2) The same in vitro macrophage stimulation in the present of cancer cell ligation experimental system as in Example 1 was used.
# Specifically, an in vitro macrophage functional assay was set up in the presence of cancer cell (SW620) ligation of macrophage iRs. […]. In vivo anti-tumor efficacies with the combination of αTLR were shown in (FIG. 9C).
# macrophages [2] = experiment: Macrophage proinflammatory cytokine production with αTLR and cancer cell ligation; type: cell-based, human and murine; details: αTLR-induced, in presence of cancer cell ligation
# Protocol: (§3) After incubation for 15 minutes at 37° C., cells were gently washed to remove the majority of SW620, followed by lysis of macrophage using Hank's buffer (pH 7.2) containing 1% Triton and 1 mM PMSF. Protein tyrosine phosphatase (PTP) activity was assayed with […] Hank's buffer at 37° C.
# as §1, §2
# macrophages [3] = experiment: Macrophage expression of cell surface antigen presentation machinery with αTLR and cancer cell ligation; type: cell-based, human and murine; details: αTLR-induced, in presence of cancer cell ligation
# Protocol: as §3, §1, §2
# [4] = test system: MC38, KPC and LLC tumor models; experiment: Syngeneic murine tumor models, TKi alone or with proinflammatory activators; type: in vivo, mice; details: for anti-tumor efficacy, alone/monotherapy: TKi alone
# Lck = Lck (Homo sapiens, UniProt P06239); details: information vendor provided; cited from earlier work
# Lyn = Lyn (Homo sapiens, UniProt P07948); details: information vendor provided; cited from earlier work
# SIRPα and PirB = experiment: iR phosphorylation and binding to SHP-1 in bone-marrow-derived macrophages; details: TLR agonist- and cancer ligation-induced, murine bone-marrow-derived macrophages
# LLC lung cancer = experiment: LLC tumor treatment and TME analyses; type: in vivo, mice; details: combined with αTLR
# Protocol: Three types of solid tumors were tested: 1) MC38 colorectal carcinoma, 2) KPC pancreatic ductal adenocarcinoma, and 3) LLC lung cancer. Tumors were subcutaneously engrafted (s.c.), and treatments started when palpable tumors formed >=200 mm^3. […] In most experiments, TKi and αTLR agonist were together suspended in 500 μl PBS and administered via s.c. at a location distant form tumor. The intermittent treatment scheme was designed to administrate the first cycle, 2× pulse administrations (d1 and d2), an intermittent period (3-7 days), followed by a second cycle treatment.
# In vivo tests for anti-tumor efficacy.
# [5] = test system: malignant melanoma and advanced malignancies; details: Phase I, cited from earlier work
# SIRPα = SIRPα ITIMs phosphorylation and SHP-1 association in macrophages activated by proinflammatory stimuli; type: cell-based; details: macrophage activation by proinflammatory stimuli or cancer therapies
# From the text: As shown, proinflammatory stimuli (TLR agonists, proinflammatory cytokines IL-1β, IL-6, IL-12, IL-17, IL-18, TNFα, IFNγ, etc., and cancer therapies) induce SIRPα ITIMs phosphorylation and exclusive association of SHP-1 (not SHP-2). Anti-inflammatory cytokine stimulation also induces SIRPα ITIMs phosphorylation but association with SHP-2.
# [6] = test system: TLR7/8 overexpressing pancreatic cancer cell line; details: R848-stimulation; cited from earlier work
# c-Src = c-Src (Homo sapiens, UniProt P12931); details: information vendor provided; cited from earlier work
# Chain of c-Src (P12931 whole entry): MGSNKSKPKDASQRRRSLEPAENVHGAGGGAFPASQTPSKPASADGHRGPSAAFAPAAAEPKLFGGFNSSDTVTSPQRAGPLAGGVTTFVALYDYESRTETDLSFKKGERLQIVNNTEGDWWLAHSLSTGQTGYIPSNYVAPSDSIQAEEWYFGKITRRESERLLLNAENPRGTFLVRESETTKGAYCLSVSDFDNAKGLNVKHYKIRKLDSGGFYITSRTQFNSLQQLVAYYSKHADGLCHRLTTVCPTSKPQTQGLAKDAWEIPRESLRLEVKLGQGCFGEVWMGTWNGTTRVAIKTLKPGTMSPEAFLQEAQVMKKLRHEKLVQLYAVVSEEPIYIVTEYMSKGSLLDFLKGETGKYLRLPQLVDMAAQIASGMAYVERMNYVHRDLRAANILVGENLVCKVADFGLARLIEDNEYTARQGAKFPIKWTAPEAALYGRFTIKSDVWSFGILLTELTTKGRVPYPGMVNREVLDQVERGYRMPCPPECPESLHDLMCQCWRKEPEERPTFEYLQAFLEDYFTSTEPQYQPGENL
# Chain of Lck (P06239 whole entry, species assumed): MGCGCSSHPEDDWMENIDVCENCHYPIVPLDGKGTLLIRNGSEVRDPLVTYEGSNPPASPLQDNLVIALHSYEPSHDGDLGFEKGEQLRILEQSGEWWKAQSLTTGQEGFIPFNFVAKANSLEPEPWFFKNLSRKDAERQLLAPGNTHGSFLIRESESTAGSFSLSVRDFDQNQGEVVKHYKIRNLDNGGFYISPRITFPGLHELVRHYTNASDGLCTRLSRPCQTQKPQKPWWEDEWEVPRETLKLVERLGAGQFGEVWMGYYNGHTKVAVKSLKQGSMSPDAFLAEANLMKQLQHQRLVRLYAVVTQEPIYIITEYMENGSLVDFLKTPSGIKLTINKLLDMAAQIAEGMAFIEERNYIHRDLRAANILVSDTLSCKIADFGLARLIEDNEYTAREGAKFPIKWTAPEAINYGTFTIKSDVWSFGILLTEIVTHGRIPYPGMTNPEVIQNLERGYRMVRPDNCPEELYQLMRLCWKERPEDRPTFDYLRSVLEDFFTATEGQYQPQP
# Chain of Lyn (P07948 whole entry, species assumed): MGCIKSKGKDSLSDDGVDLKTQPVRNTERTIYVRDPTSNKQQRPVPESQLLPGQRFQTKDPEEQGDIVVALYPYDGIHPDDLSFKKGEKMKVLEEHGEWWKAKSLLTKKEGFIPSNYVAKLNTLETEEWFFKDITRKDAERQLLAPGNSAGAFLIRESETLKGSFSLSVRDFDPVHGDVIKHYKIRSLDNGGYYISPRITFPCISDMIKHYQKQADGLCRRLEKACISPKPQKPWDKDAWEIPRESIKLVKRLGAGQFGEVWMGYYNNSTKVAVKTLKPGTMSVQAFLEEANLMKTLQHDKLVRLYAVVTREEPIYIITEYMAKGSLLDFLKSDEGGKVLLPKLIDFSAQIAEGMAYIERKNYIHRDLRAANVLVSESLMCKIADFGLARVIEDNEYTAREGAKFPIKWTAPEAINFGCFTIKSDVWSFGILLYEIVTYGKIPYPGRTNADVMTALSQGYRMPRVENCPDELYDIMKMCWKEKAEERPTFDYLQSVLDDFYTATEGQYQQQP
SMILES,macrophage SHP-1 activity (PTP activity) [1],"production of proinflammatory cytokines (TNFα, IL-6, CXCL1) (macrophages [2])",expression of cell surface antigen presentation machinery (macrophages [3]),suppression of LLC tumor (LLC lung cancer),SIRPα cytoplasmic ITIMs phosphorylation and SIRPα association with SHP-1 (SIRPα),also measured
"CN1CCN([C@H]2CC[C@H](n3cc(-c4ccc(Oc5ccccc5)cc4)c4c(N)ncnc43)CC2)CC1 [RK-20449, 7-((1R,4R)-4-(4-methylpiperazin-1-yl)cyclohexyl)-5-(4-phenoxyphenyl)-7H-pyrrolo[2,3-d]pyrimidin-4-amine]",dose-dependently diminished,marked increases,marked increases,,,"anti-tumor efficacy, alone/monotherapy [4]: not effective; IC50 (Lck): < 3 nM; IC50 (Lyn): < 3 nM; iR phosphorylation and binding to SHP-1 (SIRPα and PirB): depleted"
COc1cc(Nc2ncc(F)c(Nc3ccc4c(n3)NC(=O)C(C)(C)O4)n2)cc(OC)c1OC [R406],capability of diminishing,Neither UM164 nor R406 enabled,elevated,effectively suppressed,,intratumoral CD8+ T cell expansion (LLC lung cancer): induced intratumoral CD8+ T cell expansion; intratumoral macrophage antigen presentation (LLC lung cancer): induced intratumoral macrophages for antigen presentation
"O.O.O.O.O.O.O.O.O.O=C([O-])[C@@H]1[O][Sb]2([O-])([O][Sb]34([OH])[O][C@H]([C@H](O)CO)[C@H]([O]3)[C@H](C(=O)[O-])[O]4)[O][C@H]([C@H](O)CO)[C@@H]1[O]2.[Na+].[Na+].[Na+] [SSG, sodium stibogluconate]",,,,,,effect against tumor development ([5]; in combination with interferons followed or not by chemotherapy): no effect; patients with most common toxic side-effects [5]: up to 68%
Cc1ccc(-c2nn(C(C)(C)C)c3ncnc(N)c23)cc1 [PP1],,,,,diminished,
CCOCc1nc2c(N)nc3ccccc3c2n1CC(C)(C)O [R848],,,,,,cell proliferation [6]: increased; chemosensitivity [6]: reduced
"Cc1nc(Nc2ncc(C(=O)Nc3c(C)cccc3Cl)s2)cc(N2CCN(CCO)CC2)n1 [Dasatinib, N-(2-chloro-6-methylphenyl)-2-[[6-[4-(2-hydroxyethyl)-1-piperazinyl]-2-methyl-4-pyrimidinyl]amino]-5-thiazole carboxamide monohydrate]",dose-dependently diminished,marked increases,marked increases,,,"anti-tumor efficacy, alone/monotherapy [4]: not effective; angiogenesis in tumors ([4]; mouse, in vivo): inhibits; TME immune populations (CD8+ T cells, NK cells, macrophages, MDSC) (LLC lung cancer; LLC tumors, 3-day post treatment, various doses): dose-dependent effect of elevating CD8+ T cells and NK cells and reducing macrophages and MDSC; iR phosphorylation and binding to SHP-1 (SIRPα and PirB): depleted"
CC(C)(C)n1nc(-c2ccc(Cl)cc2)c2c(N)ncnc21 [PP2],,,,,diminished,
C/C(O)=C(\C#N)C(=O)Nc1cc(Br)ccc1Br [LFMA-13],,,,,not,
CC(C)CCC[C@@H](C)[C@H]1CC[C@H]2[C@@H]3CCC4C[C@H](N)CC[C@]4(C)[C@H]3CC[C@]12C (stereo partly drawn) [3Ac],,,,not,,
Cc1nc(Nc2ncc(C(=O)Nc3cc(NC(=O)c4cccc(C(F)(F)F)c4)ccc3C)s2)cc(N2CCN(CCO)CC2)n1 [UM-164],capability of diminishing,Neither UM164 nor R406 enabled,elevated,not,,IC50 (c-Src): 2.7 nM
